# Source: ChEMBL document CHEMBL4393669, “D2 Dopamine Receptor G Protein-Biased Partial Agonists Based on Cariprazine” (J Med Chem, 2019)
# Activity calls are given as the source filed them. No cut-off for these calls is given here.
# How the values were obtained:
# [1] = biological target: D(2) dopamine receptor (Homo sapiens) (UniProt P14416)
# Mus musculus = species on record: Mus musculus; details: C57
# D(2) dopamine receptor (Homo sapiens), sequence (P14416 whole entry): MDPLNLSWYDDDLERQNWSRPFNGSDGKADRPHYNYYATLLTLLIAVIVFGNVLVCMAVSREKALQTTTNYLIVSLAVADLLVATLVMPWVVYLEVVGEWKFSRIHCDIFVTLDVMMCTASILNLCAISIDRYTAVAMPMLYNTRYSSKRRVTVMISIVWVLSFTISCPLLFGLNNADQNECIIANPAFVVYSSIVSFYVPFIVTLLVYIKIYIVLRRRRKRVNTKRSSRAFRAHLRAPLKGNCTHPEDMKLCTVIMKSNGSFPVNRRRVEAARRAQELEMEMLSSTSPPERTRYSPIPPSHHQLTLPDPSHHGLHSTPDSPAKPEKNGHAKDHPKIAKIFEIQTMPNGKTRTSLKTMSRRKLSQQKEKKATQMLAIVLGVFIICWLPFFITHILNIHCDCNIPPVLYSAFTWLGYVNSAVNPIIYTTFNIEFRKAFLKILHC
pEC50 [1],SMILES,Occ (Mus musculus)
inactive,CN(C)C(=O)N[C@H]1CC[C@H](CN2CCc3ccccc3C2)CC1,–
–,CN(C)C(=O)N[C@H]1CC[C@H](CCN2CCc3cccc(Cl)c3C2)CC1,Dose-dependent effect
inactive,CN(C)C(=O)NCCCCCN1CCc2ccccc2C1,–
inactive,CN(C)C(=O)Nc1ccc(CCN2CCc3ccccc3C2)cc1,–
